Experimental data as given in US5912351A, “Anhydrous 1,4-Dihydropyridines and salts thereof” (Recordati, S.A. Chemical and Pharmaceutical Company, priority 1995, dated 1999).

Legend:
[1] = test system: LDL, isolated from human plasma; experiment: Chemical (Cu++) oxidation of LDL, conjugated diene formation at 234 nm; type: biochemical; parameters: Lag time of LDL oxidation: unit not given here
Procedure: The ability of Lercanidipine to function as an antioxidant was evaluated by incubating LDL, isolated from human plasma, for 22 hours with an oxidizing agent (20 μM Cu++) in the presence of different concentrations of the test compounds (0.01 μM-50 μM). The LDL oxidation was followed by monitoring conjugated diene formation with a ultraviolet (UV) spectrometer at 234 nm.
The experimental conditions were as follows. LDL (d=1.019-1.063) were isolated from human pooled plasma by sequential ultracentrifugation at 4° C. and 40,000 rpm in a 50 Ti rotor, using a L5-50 ultracentrifuge (Beckman, Palo Alto, Calif.). The LDL were then dialyzed against 0.15 M NaCl containing 0.01% ethylenediaminetetraacetic acid pH 7.4, sterilized by filtration through a […] millipore filter and stored at 4° C. under nitrogen in the dark until use (up to 3 weeks). Before use, LDL were dialyzed against ethylenediaminetetraacetic acid free phosphate buffered saline, pH 7.4, on Sephadex G-25 columns (PD-10, Pharmacia Fine Chemicals, Uppsala, Sweden). Then the LDL were filtered through a sterile 0.22 μM filter. In a phosphate buffered saline (50 μg lipoprotein protein/ml), the LDL were oxidized by incubation at 25° C. with 20 μM CuSO4 for 3 hours. The lercanidipine solution was prepared as a 10^-2 M stock solution in methanol or ethanol and added as a methanol or ethanol solution (maximum 1% v/v) prior to addition of the copper solution. The effect of lercanidipine on the oxidation of LDL was determined by continuous monitoring of the formation of conjugated dienes by recording the increase in the absorbance at 234 nm at 5 min intervals during a three hour period, against a phosphate buffered saline blank, using a UV spectrophotometer (Beckman DU 640) equipped with a continuous reading and an automatic 6-cell changer. The time prior to the onset of oxidation (lag time) was calculated as the intercept between the line of the maximum slope of the propagation phase and the x-axis.

EAhy-926 = experiment: Cell-mediated oxidation of LDL (MDA), EAhy-926 cells; type: cell-based; details: 10 to 100 μM, 22 hours, FIG. 6
Procedure: The antioxidant capacity was evaluated by incubating ethylene-diaminetetraacetic acid free-LDL under sterile conditions with 5 μM Cu++ (100 μg Apo B/ml) in the presence of J774A.1 cells. Oxidation was stopped after 22 hours incubation by addition of butylated hydroxytoluene to the medium (final concentration 40 μM) dissolved in ethanol. To the incubated sample (0.250 ml), was added trichloroacetic acid (0.750 ml, 0.20% w/v) followed by of thiobarbituric acid (0.750 ml, 0.67% w/v). The samples were heated at 100° C. for 20 min, followed by cooling and centrifugation. Malonic dialdehyde equivalents were calculated using 1,1,3,3-tetramethoxypropane as the standard.
Following the procedure in Example 9A, the effects of lercanidipine on cell-mediated oxidation were studied with a different cell line which shares many of the properties of endothelial cells (EAhy-926). (The cells were provided by: Prof. A. Catapano, Pharmacology Dept., Universita Statale--Milano.) (These or other endothelial cells can be obtained as described by C-J. S. Edgall et al., Proc. Nat. AcAd. Sci., 80: 3734-3737, (1983); and Gimbrone, M., Prog. Hemostasis Thromb., 3: 1-28, (1976)). The cells were treated with lercanidipine at a concentration of from about 10 to about 100 μM.

## COC(=O)C1=C(C)NC(C)=C(C(=O)OC(C)(C)CN(C)CCC(c2ccccc2)c2ccccc2)C1c1cccc([N+](=O)[O-])c1 (racemic) [LE, methyl 1,1,N-trimethyl-N-(3,3-diphenylpropyl)-2-aminoethyl 1,4-dihydro-2,6-dimethyl-4-(3-nitrophenyl)-pyridine-3,5-dicarboxylate]
[1]; 0.5 μM, 20 μM Cu++
  Lag time of LDL oxidation: 45.2 ± 3.7
[1]; 1.0 μM, 20 μM Cu++
  Lag time of LDL oxidation: 49.8 ± 4.7
[1]; 2.5 μM, 20 μM Cu++, P < 0.05
  Lag time of LDL oxidation: 53.6 ± 3.3
[1]; 5.0 μM, 20 μM Cu++, P < 0.01
  Lag time of LDL oxidation: 73.2 ± 4.8
[1]; 10 μM
  increase of the lag time for LDL oxidation: more than 2 times
[1]; 10.0 μM, 20 μM Cu++, P < 0.01
  Lag time of LDL oxidation: 112.7 ± 5.2
[1]; 20 μM Cu++
  concentrations significantly suppressing the onset of LDL oxidation: greater than or equal to 2.5 μM
[1]; assays herein
  potency relative to lacidipine (LDL oxidation): one order of magnitude higher
EAhy-926
  LDL oxidation (nanomoles of MDA produced): reduced the oxidation of LDL
